From patent US20250205265A1, “ASPERULOSIDE AS AN AGENT FOR IMPROVING VASCULAR AND METABOLIC FUNCTION IN OBESITY: ROLE OF NRF2 ACTIVATION” (The Chinese University of Hong Kong, priority 2023, published 2025)
“Also recorded” adds a separate entry of the source. Read-outs that look alike come from different tables or passages of the source.

Tests used:
[1] = test system: lipid droplets in obese mice livers; test: H&E and Oil Red O staining of obese mice livers; type: in vivo; details: ASP 50 mg/kg oral gavage daily for seven weeks
Protocol: (§1) After induction of obesity in C57BL/6 male mice fed with the high-fat diet for twelve weeks, they were treated daily with ASP (50 mg/kg) via oral gavage for seven weeks in vivo study. C57BL/6 mice aortae were used for ex vivo studies. Endothelial cells, HepG2 and primary adipocytes were used for in vitro studies. Vascular function was determined by wire myograph. H&E staining was employed for histological examination. Oil Red O staining was used to determine lipid droplets in tissues and cells. DHE and MitoSOX staining were used to detect ROS levels. QPCR, aortic en-face immunofluorescence staining, and Western blotting were used to analyze mRNA and protein expressions. ARE binding activity was determined by Dual luciferase reporter assay. Small interfering (si)RNA of Nrf2 and HO-1, inhibitors of Nrf2 (ML385, Cat. No.: HY-100523) and HO-1 (OB-24, HY-118487) were used to elucidate the mechanistic pathway of ASP's action.

Nrf2 [2] = test: Nrf2 nuclear translocation in primary adipocytes (immunofluorescence); type: cell-based, mice; details: 40 μmol/L ASP for 24 hours
Protocol: Primary adipocytes were treated with 40 μmol/L ASP (FIG. 22A) or different doses of ASP (FIG. 22B) for 24 hours. […] Scale bar, 50 μm (FIG. 22B). Data represent means±SEM of 4 experiments. P values were determined using One-way ANOVA. *p<0.05.
as §1

obese mice livers = test: DHE staining of obese mice livers; type: in vivo
Protocol: as §1

Npra, Hsl, Fas, Acc2 = test: Real-time PCR of lipid metabolism genes in obese mice livers; type: in vivo
Protocol: as §1

endothelial cells = test: ROS level in endothelial cells; type: cell-based
Protocol: (§2) After induction of obesity in C57BL/6 male mice fed with high fat diet for twelve weeks, they were treated daily with ASP (50 mg/kg) via oral gavage for seven weeks in vivo study. C57BL/6 mice aortae were used for ex vivo study and endothelial cells were used for in vitro study. Vascular function was determined by wire myograph. DHE and MitoSOX staining were used to detect ROS levels. QPCR, aortic en-face immunofluorescence staining, and Western blotting were used to analyze mRNA and protein expressions. Small interfering (si)RNA of Nrf2 and HO-1, inhibitors of Nrf2 (ML385, Cat. No.: HY-100523) and HO-1 (OB-24, HY-118487) were used to elucidate the mechanistic pathway of ASP's action.
as §1, with “QPCR, aortic en-face immunofluorescence staining, and Western blotting were used to analyze mRNA and protein expressions.” left out, “Small interfering (si)RNA of Nrf2 and HO-1, inhibitors of Nrf2 (ML385, Cat. No.: HY-100523) and HO-1 (OB-24, HY-118487) were used to elucidate the mechanistic pathway of ASP's action.” left out

HepG2 cells = test: ATP production in PA-treated HepG2 cells; type: cell-based
Protocol: as §1

Nrf2 protein = target: T1, Nrf2 protein (Mus musculus, UniProt Q60795); test: CETSA in endothelial cells; type: binding; details: ASP 40 μmol/L
T1 construct: endogenous in cells
T1 sequence (Q60795 whole entry): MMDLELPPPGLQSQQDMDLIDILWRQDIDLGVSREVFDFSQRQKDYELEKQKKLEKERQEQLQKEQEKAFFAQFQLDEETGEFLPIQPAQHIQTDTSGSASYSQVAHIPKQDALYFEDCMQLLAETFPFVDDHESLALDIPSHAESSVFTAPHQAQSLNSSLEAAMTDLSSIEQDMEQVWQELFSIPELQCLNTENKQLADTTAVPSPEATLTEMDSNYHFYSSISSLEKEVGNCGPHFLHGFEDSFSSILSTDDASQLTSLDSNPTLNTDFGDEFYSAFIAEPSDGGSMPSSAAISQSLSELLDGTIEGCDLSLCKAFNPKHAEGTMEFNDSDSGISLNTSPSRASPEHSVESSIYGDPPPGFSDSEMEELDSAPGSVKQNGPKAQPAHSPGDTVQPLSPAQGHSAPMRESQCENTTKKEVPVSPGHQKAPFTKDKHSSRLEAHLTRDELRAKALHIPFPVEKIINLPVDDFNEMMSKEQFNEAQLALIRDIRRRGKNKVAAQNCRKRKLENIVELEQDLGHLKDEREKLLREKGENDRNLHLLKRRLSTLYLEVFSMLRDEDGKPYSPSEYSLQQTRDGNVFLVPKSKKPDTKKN
Protocol: The Nrf2 protein expression was normalized to total protein. P values were determined using One-way ANOVA. *p<0.05. Data represent means±SEM of 3 experiments.

[3] = test system: Cpt1α, Cpt1β, mitochondrial complex, Pgc1α; test: Real-time PCR of mitochondrial genes in obese mice livers; type: in vivo
Protocol: as §1

Nrf2 [4] = test: Nrf2 nuclear translocation and protein level in obese mice livers; type: in vivo
Protocol: as §1

ROS = test: Ex vivo DHE staining of ROS in IL-1β-treated aortas; set-up: species or system mice
Protocol: as §2, §1

[5] = test system: high-fat diet (HFD)-fed mice; test: Vascular function by wire myograph, aortas of obese mice; type: in vivo; details: ASP 50 mg/kg oral gavage daily for seven weeks
Protocol: as §2
as §1, with “QPCR, aortic en-face immunofluorescence staining, and Western blotting were used to analyze mRNA and protein expressions.” left out, “Small interfering (si)RNA of Nrf2 and HO-1, inhibitors of Nrf2 (ML385, Cat. No.: HY-100523) and HO-1 (OB-24, HY-118487) were used to elucidate the mechanistic pathway of ASP's action.” left out

Substance: Asperuloside
- accumulated lipid droplets (H&E, Oil Red O) [1]: attenuates obesity-induced accumulated lipid droplets
- Nrf2 nuclear translocation (Nrf2 [2]): stimulates Nrf2 nuclear translocation in adipocytes
- oxidative stress (DHE staining) (obese mice livers): suppresses oxidative stress in obese mice livers
- mRNA expression levels of fatty acid synthesis-related genes, including Fas and Acc2 (Npra, Hsl, Fas, Acc2): downregulated
- mRNA expression levels of lipolysis-related genes, Npra and Hsl (Npra, Hsl, Fas, Acc2): increases the mRNA expression levels of lipolysis-related genes, Npra and Hsl
- ROS level (endothelial cells; HO-1-silencing cells): fails to decrease ROS level
- oxidative stress (endothelial cells; endothelial cells): suppresses oxidative stress
- production of ATP (HepG2 cells): restores the decreased production of ATP
- production of ATP (HepG2 cells; inhibition of Nrf2): inhibition of Nrf2 eliminates the rescue effect of ASP
- melting behavior of Nrf2 protein (CETSA) (Nrf2 protein; 0.3 ng/mL IL-1β-treated endothelial cells): changes the melting behavior of Nrf2 protein
- melting behavior of Nrf2 protein (CETSA) (Nrf2 protein; endothelial cells under basal conditions): changes the melting behavior of Nrf2 protein
- mRNA expressions of Cpt1α, Cpt1β, mitochondrial complex, and Pgc1α [3]: reverses these impairments
- Nrf2 nuclear translocation (immunofluorescence) (Nrf2 [4]; obese mice livers): stimulates Nrf2 nuclear translocation in obese mice livers
- Nrf2 protein level (western blot) (Nrf2 [4]; obese mice livers): increased
- increase of protein level of Nrf2 in the liver (Nrf2 [4]; worded as embodiment, cf. FIG. 13B): about 3 fold
- ROS generation (ROS; IL-1β, HO-1-inhibited aortas): fails to rescue the impairment (FIG. 2C) or decrease ROS generation
- IL-1β-induced ROS overproduction (ROS; ML385-treated aortas): fails to reverse impairment (FIG. 4E) or suppress IL-1β-induced ROS overproduction
- IL-1β-induced ROS overexpression (DHE staining) (ROS; endothelial Nrf2 knocked down): fails to suppress IL-1β-induced ROS overexpression
- acetylcholine-induced endothelium-dependent relaxations (EDRs) [5]: prevents HFD-induced impairment of EDRs; also recorded: significantly reversed the impairments of endothelium-dependent relaxations; also recorded: significantly improved endothelial-dependent relaxations
- endothelium-independent relaxations in response to sodium nitroprusside (SNP) [5]: remain similar among different groups
